Several values for one entry are separate records, joined by “and”; a condition that tells them apart may be missing. Equal entries are not always repeated. Inconclusive results and toxic doses are left out.
System: BDF1 mice, P388 leukemia ip, median survival T/C
Experiment: NCI In Vivo Anticancer Drug Screen. Data for tumor model P388 Leukemia (intraperitoneal) in B6D2F1 (BDF1) mice
Conditions: endpoint: median survival time, higher = longer survival
How it was run: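 Survival ratio, drug arm over vehicle arm, in mice with a transplanted tumour.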

[1] = dose: 12.5 mg/kg/injection, schedule: Q01DX009 (ip), vehicle: saline
[2] = dose: 50.0 mg/kg/injection, schedule: Q01DX009 (ip), vehicle: saline with Tween-80
[3] = dose: 100.0 mg/kg/injection, schedule: Q01DX009 (ip), vehicle: saline with Tween-80
[4] = dose: 200.0 mg/kg/injection, schedule: Q01DX009 (ip), vehicle: saline with Tween-80
[5] = dose: 25.0 mg/kg/injection, schedule: Q01DX009 (ip), vehicle: saline
[6] = dose: 25.0 mg/kg/injection, schedule: Q04DX003 (ip), vehicle: saline
[7] = dose: 50.0 mg/kg/injection, schedule: Q01DX009 (ip), vehicle: saline
[8] = dose: 50.0 mg/kg/injection, schedule: Q04DX003 (ip), vehicle: saline
[9] = dose: 12.5 mg/kg/injection, schedule: Q01DX009 (ip), vehicle: saline with Tween-80
[10] = dose: 25.0 mg/kg/injection, schedule: Q01DX009 (ip), vehicle: saline with Tween-80
[11] = dose: 100.0 mg/kg/injection, schedule: Q01DX009 (ip), vehicle: Klucel (hydroxypropylcellulose) (HPC)
[12] = dose: 200.0 mg/kg/injection, schedule: Q01DX009 (ip), vehicle: Klucel (hydroxypropylcellulose) (HPC)
[13] = dose: 400.0 mg/kg/injection, schedule: Q01DX009 (ip), vehicle: Klucel (hydroxypropylcellulose) (HPC)
[14] = dose: 100.0 mg/kg/injection, schedule: Q04DX003 (ip), vehicle: saline
[15] = dose: 200.0 mg/kg/injection, schedule: Q04DX003 (ip), vehicle: saline
[16] = dose: 400.0 mg/kg/injection, schedule: Q04DX003 (ip), vehicle: saline
[17] = dose: 50.0 mg/kg/injection, schedule: Q01DX005 (ip), vehicle: saline with Tween-80
[18] = dose: 100.0 mg/kg/injection, schedule: Q01DX005 (ip), vehicle: saline with Tween-80

## CC1(C)SC(=S)N(c2ccc([N+](=O)[O-])cc2)C1=O
dose: 75.0 mg/kg/injection, schedule: Q01DX009 (ip), vehicle: saline with Tween-80
  T/C: 115 % of control
dose: 150.0 mg/kg/injection, schedule: Q01DX009 (ip), vehicle: saline with Tween-80
  T/C: 113 % of control
dose: 300.0 mg/kg/injection, schedule: Q01DX009 (ip), vehicle: saline with Tween-80
  T/C: 96 % of control

## CC(N)Cc1c(Cl)cc(N(C)C)cc1Cl (stereo unspecified)
dose: 3.13 mg/kg/injection, schedule: Q01DX009 (ip), vehicle: saline
  T/C: 100 % of control
dose: 6.25 mg/kg/injection, schedule: Q01DX009 (ip), vehicle: saline
  T/C: 100 % of control
[1]
  T/C: 102 % of control

## O=c1c2ccccc2[nH]c2cc3c(=O)c4ccccc4[nH]c3cc12
[2]
  T/C: 99 % of control
[3]
  T/C: 95 % of control
[4]
  T/C: 93 % of control

## CCN1C=C/C(=C/c2cc3scc(-c4ccccc4)[n+]3c3ccccc23)c2ccccc21
dose: 0.08 mg/kg/injection, schedule: Q01DX009 (ip), vehicle: saline
  T/C: 100 % of control
dose: 0.16 mg/kg/injection, schedule: Q01DX009 (ip), vehicle: saline
  T/C: 108 % of control
dose: 0.32 mg/kg/injection, schedule: Q01DX009 (ip), vehicle: saline
  T/C: 120 % of control

## Cn1c(O)c(C=N)c(=O)n(C)c1=O
dose: 12.0 mg/kg/injection, schedule: Q01DX009 (ip), vehicle: saline
  T/C: 118 % of control
[5]
  T/C: 109 % of control
[6]
  T/C: 92 % of control
[7]
  T/C: 100 % of control
[8]
  T/C: 100 % of control

## CC([N+](=O)[O-])S(=O)(=O)c1ccc(Cl)cc1 (stereo unspecified)
dose: 50.0 mg/kg/injection, schedule: Q01DX001 (ip), vehicle: saline sonified
  T/C: 95 % of control
dose: 100.0 mg/kg/injection, schedule: Q01DX001 (ip), vehicle: saline sonified
  T/C: 100 % of control
dose: 200.0 mg/kg/injection, schedule: Q01DX001 (ip), vehicle: saline sonified
  T/C: 100 % of control

## CCN(C)c1ccc(/C=C/c2ccnc3ccccc23)cc1
[9]
  T/C: 115 % of control
[10]
  T/C: 91 % of control
[2]
  T/C: 99 % of control

## CC(=O)OC1C=CCC2C(=O)C34CC=CC(OC(C)=O)C3(C(=O)c3ccccc3C4=O)C(=O)C12 (stereo unspecified)
dose: 3.12 mg/kg/injection, schedule: Q01DX009 (ip), vehicle: saline
  T/C: 95 % of control
[1]
  T/C: 95 % of control
[5]
  T/C: 114 % of control

## C=C(C)[C@@H]1CC[C@]2(CO)CC[C@]3(C)[C@H](CC[C@@H]4[C@@]5(C)CC[C@H](O)C(C)(C)[C@@H]5CC[C@]43C)[C@@H]12
dose: 10.0 mg/kg/injection, schedule: Q01DX009 (ip), vehicle: saline with Tween-80
  T/C: 94 % of control
dose: 20.0 mg/kg/injection, schedule: Q01DX009 (ip), vehicle: saline with Tween-80
  T/C: 99 % of control
dose: 40.0 mg/kg/injection, schedule: Q01DX009 (ip), vehicle: saline with Tween-80
  T/C: 100 % of control
dose: 75.0 mg/kg/injection, schedule: Q01DX009 (ip), vehicle: other
  T/C: 97 % of control
dose: 80.0 mg/kg/injection, schedule: Q01DX009 (ip), vehicle: saline with Tween-80
  T/C: 95 % of control
[11]
  T/C: 101 % of control
dose: 150.0 mg/kg/injection, schedule: Q01DX009 (ip), vehicle: other
  T/C: 106 % of control
[12]
  T/C: 98 % of control
[13]
  T/C: 111 % of control

## Cc1ccc(NCc2cccc3ccccc23)c(C)c1
[14]
  T/C: 91 % of control
[15]
  T/C: 100 % of control
[16]
  T/C: 95 % of control

## CSc1ccc(NC(=O)NNP(=S)(Oc2ccc(C(C)(C)C)cc2)Oc2ccc(C(C)(C)C)cc2)cc1
[17]
  T/C: 96 % of control
[18]
  T/C: 96 % of control

## C=CC(O)CN1CC1 (stereo unspecified)
dose: 10.0 mg/kg/injection, schedule: Q04DX003 (ip), vehicle: saline
  T/C: 191 % of control

## C=CCCc1cc(C(=O)N(c2ccccc2)C(C(=O)O)c2ccccc2)ccc1OC (stereo unspecified)
dose: 100.0 mg/kg/injection, schedule: Q04DX002 (ip), vehicle: saline with Tween-80
  T/C: 101 % of control
dose: 200.0 mg/kg/injection, schedule: Q04DX002 (ip), vehicle: saline with Tween-80
  T/C: 100 % of control
dose: 400.0 mg/kg/injection, schedule: Q04DX002 (ip), vehicle: saline with Tween-80
  T/C: 108 % of control

## Cc1c2oc3c(C)c([N+](=O)[O-])cc(C(=O)NC4C(=O)NC(C(C)C)C(=O)N5CCCC5C(=O)N(C)CC(=O)N(C)C(C(C)C)C(=O)OC4C)c3nc-2c(C(=O)NC2C(=O)NC(C(C)C)C(=O)N3CCCC3C(=O)N(C)CC(=O)N(C)C(C(C)C)C(=O)OC2C)c(N)c1=O (stereo unspecified)
dose: 150.0 micrograms/kg/injection, schedule: Q01DX009 (ip), vehicle: saline + alcohol
  T/C: 153 % of control
dose: 450.0 micrograms/kg/injection, schedule: Q04DX003 (ip), vehicle: saline + alcohol
  T/C: 110 % of control
dose: 600.0 micrograms/kg/injection, schedule: Q04DX003 (ip), vehicle: saline + alcohol
  T/C: 108 % of control

## CC(NC(C)(C)C)C(=O)c1cccc(Cl)c1 (stereo unspecified)
[1]
  T/C: 108 % of control
[5]
  T/C: 112 % of control
[7]
  T/C: 105 % of control

## COc1ccc2c(c1OC)CN1CCc3cc4c(cc3C1=C2)OCO4
[17]
  T/C: 102 % of control
[18]
  T/C: 90 % of control
dose: 200.0 mg/kg/injection, schedule: Q01DX005 (ip), vehicle: saline with Tween-80
  T/C: 91 % of control

## COc1cc2c(cc1OC)C(=O)C(C(=O)c1ccccc1)C2 (stereo unspecified)
[11]
  T/C: 100 % of control
dose: 100.0 mg/kg/injection, schedule: Q04DX003 (ip), vehicle: Klucel (hydroxypropylcellulose) (HPC)
  T/C: 100 % of control
[12]
  T/C: 100 % of control
dose: 200.0 mg/kg/injection, schedule: Q04DX003 (ip), vehicle: Klucel (hydroxypropylcellulose) (HPC)
  T/C: 100 % of control
[13]
  T/C: 91 % of control
dose: 400.0 mg/kg/injection, schedule: Q04DX003 (ip), vehicle: Klucel (hydroxypropylcellulose) (HPC)
  T/C: 112 % of control

## COc1ccc2c(c1OC(C)=O)-c1cc(OC(C)=O)cc3c1C(C2)N(C(=O)CBr)CC3 (stereo unspecified)
dose: 6.25 mg/kg/injection, schedule: Q01DX009 (ip), vehicle: saline with Tween-80
  T/C: 105 % of control
[9]
  T/C: 106 % of control
[10]
  T/C: 116 % of control
[2]
  T/C: 88 % of control and 114 % of control

## COC(=O)/C=C\SC(=S)C1CCCC1=O (stereo unspecified)
[2]
  T/C: 119 % of control
[3]
  T/C: 110 % of control
[4]
  T/C: 112 % of control

## C[n+]1ccc(/C=N/O)cc1
[6]
  T/C: 105 % of control
[8]
  T/C: 103 % of control
[14]
  T/C: 98 % of control
[15]
  T/C: 89 % of control and 100 % of control
[16]
  T/C: 86 % of control

Source: PubChem BioAssay AID328 (DTP/NCI, 2004)
